Earlier results on 1 molecule are cited in patent US10874875B2, “Irradiation device” (Photocure ASA, priority 2009, dated 2020).

SMILES strings stand for the structures.

This data set deals with CIN2 or CIN3 or a persistent CIN1. Particulars: 24 patients; local application in a thermogel formulation; illumination 17 minutes after 3-5 hours, laser 100 J/cm^2; second PDT offered for incomplete response; scored at 6 months after the first treatment.

Turning to `CCCCCCOC(=O)CCC(=O)CN` [5-ALA hexylester, 5-ALA hexyl ester], the complete response rate is listed as 63%.
